{"source": "paper PMC9200803", "about": "“Design, synthesis, and biological evaluation of tetrahydroquinolinones and tetrahydroquinolines with anticancer activity” (Scientific Reports, 2022)", "key": {"MCF-7 cells": {"test_system": "MCF-7 cells", "test": "MTT cell viability assay, MCF-7", "assay_type": "cell-based, human", "conditions": "Homo sapiens, MCF7, 72 h, IC50 ± SD", "procedure": "To evaluate the effects of the newly synthesized tetrahydroquinolin-2(1H)-one derivatives on cell viability, we treated human colon cancer cells HCT-116, human breast cancer cells MCF-7, and human non-small cell lung cancer cells A-549 with different concentrations of the compounds for 72 h. After incubation, the MTT (3-(4,5-dimethylthiazol-2-yl)-2,5-diphenyltetrazolium bromide) assay was performed and the cytotoxic potency of compounds (expressed in IC50) on the cells was determined in comparison to control cells treated with 1% of dimethyl sulfoxide (DMSO) (Table 1). […] We also compared the activity of 20d and 19b to the reference control drug Cisplatin, which is widely used in chemotherapy.\nA-549 (CCL-185) and MCF-7 ([…]) cells were cultured in RPMI-1640 medium, while HCT-116 (CVCL-427), (hMLH1)-deficient (MMR^–) and hMLH1-proficient (MMR^+) RKO cells were cultured in McCoy’s 5A medium. The culture media were supplemented with 10% fetal bovine serum, 2 mM L-glutamine, and antibiotics (penicillin 62.6 µg/ml and streptomycin 40 µg/ml). Cultivation of cell lines was carried out at 37 °C under a humidified atmosphere containing 5% CO2, and the cultures were routinely screened for Mycoplasma contamination. A-549, MCF-7, and HCT-116 cells were obtained from American Type Culture Collection (ATCC), while RKO colon carcinoma cells were a kind gift of Dr Timothy Kinsella (Brown University, USA).\nThe viability of cells was determined in response to the newly synthesized compounds using the MTT (Sigma-Aldrich) assay. Briefly, cells were seeded into 96-well plates and allowed to attach overnight. Then, cells were exposed to various concentrations of compounds for 24, 48 or 72 h. Negative controls were treated with the same amount of DMSO solvent (1%). After treatment, the MTT solution (0.4 mg/ml) was added to each well and allowed to react with cells for 2–3 h at 37 °C. Next, the medium was removed, the formazan product formed was dissolved in 100 μl of DMSO, and the absorbance was determined at 540 nm using an ASYS UVM340 microplate reader (Biochrom Ltd.). The IC50 value, which represents the concentration of the compound required to inhibit cell growth by 50% compared to vehicle, was calculated using GraphPad Prism 8 software based on the curves plotting survival against dose averaged from at least three independent experiments."}, "[1]": {"test_system": "hMLH1-proficient (MMR+) RKO cells", "test": "MTT cell viability assay, hMLH1-proficient (MMR+) RKO", "assay_type": "cell-based", "conditions": "Homo sapiens, mean ± SD", "excerpt": "We further attempted to determine whether 20d-induced cancer cell death was related to the induction of ROS production in HCT-116 cells. For this purpose, we pretreated cells with N-acetyl-L-cysteine (NAC), which is a commonly used antioxidant and ROS scavenger. […] HCT-116 cell line has high-frequency microsatellite instability, which is associated with deficient DNA mismatch repair (MMR)[31]. The MMR system corrects DNA-mismatched and insertion–deletion loop bases generated during DNA replication. One of the key proteins involved in the MMR pathway is MLH1, which is mutated or epigenetically silenced in many MMR-deficient (MMR^–) cells, such as HCT-116[33]. To further determine the selectivity for MMR deficiency, we analyzed the cell viability of human MutL homologue 1 (hMLH1)-deficient (MMR^–) and hMLH1-proficient (MMR^+) RKO human colon carcinoma cell lines. The latter was established by transfecting hMLH1 cDNA into MMR^− RKO cell line[34]. In MMR^– RKO cells, the hMLH1 gene promoter was silenced transcriptionally by hypermethylation. […]\nThe viability of cells was determined in response to the newly synthesized compounds using the MTT (Sigma-Aldrich) assay. […] Next, the medium was removed, the formazan product formed was dissolved in 100 μl of DMSO, and the absorbance was determined at 540 nm using an ASYS UVM340 microplate reader (Biochrom Ltd.). […]"}, "HCT-116 cells [2]": {"test_system": "HCT-116 cells", "test": "Cell cycle distribution analysis by flow cytometry (PI staining)", "assay_type": "cell-based, human", "conditions": "HCT-116, 24 to 72 h, vs vehicle", "procedure": "Based on their antiproliferative activity, 20d and 19b were evaluated for their effect on cell cycle phase distribution and DNA content by flow cytometry.\nHCT-116 and A-549 cells were seeded into culture plates and allowed to attach overnight. Then, cells were incubated with the investigated compounds for the indicated time points. After incubation, the harvested cells were fixed with ice-cold 75% ethanol and stored overnight at − 20 °C. Next, cells were rehydrated with PBS in ice for 15 min and washed twice in PBS. Finally, cells were stained with […] propidium iodide (PI) and […] RNase A in PBS for 30 min at room temperature. Cell cycle distribution was determined using a Guava easyCyte 8 flow cytometer (Merck Millipore) and FlowJo v10 software."}, "HCT-116 cells [3]": {"test_system": "HCT-116 cells", "test": "ROS level, H2DCFDA probe, flow cytometry, HCT-116", "assay_type": "cell-based", "procedure": "Reactive oxygen species (ROS) affect the cellular redox homeostasis resulting in extensive and irreparable damage and ultimately cell death. Anticancer compounds with cytotoxic properties often cause disturbances in the redox state in cells. Therefore, we performed a time-dependent kinetic analysis of the intracellular ROS level in colon cancer cell lines after treatment with 20d.\nThe […] ROS levels were determined using an H2DCFDA (2′,7′-dichlorodihydrofluorescein diacetate) probe (Thermo Fisher) following the manufacturer’s protocol. […] DMSO (1%, Merck) and 250 μM H2O2 were used as a negative and positive control, respectively. NAC (500 μM, Sigma-Aldrich) was used as an ROS scavenger to confirm the ROS activity. After treatment with 20d and 19b, cells were incubated with H2DCFDA at 37 °C for 30 min. Subsequently, cells were harvested by trypsinization, rinsed with PBS, and stained with 7-AAD (Thermo Fisher). Finally, the stained cells were analyzed by flow cytometry using a Guava easyCyte 8 cell sorter (Merck Millipore) and FlowJo v10 software.\nROS analysis was performed by seeding the cells into cover glass-bottom 24-well plates for live-cell imaging. Cells were treated with compounds and stained as described above for flow cytometry. […]"}}}
{"molecule": "O=C(Nc1cccc(F)c1)OC1CCCc2c(-c3ccccc3)cc(=O)[nH]c21", "note": "(stereo not drawn) [Compound 20d, (2-oxo-4-phenyl-5,6,7,8-tetrahydroquinolin-8-yl) N-(3-fluorophenyl)carbamate]", "values": [{"measurement": "IC50", "setting": "MCF-7 cells", "value": "> 50", "unit": "µM"}, {"measurement": "IC50", "setting": "[1]", "value": "4.78 ± 0.38", "unit": "µM"}, {"measurement": "increase in the number of cells in the G0/G1 phase", "setting": "HCT-116 cells [2]", "value": "< 14", "unit": "%"}, {"measurement": "number of cells in the S-phase", "setting": "HCT-116 cells [2]", "value": "substantial decrease"}, {"measurement": "increase in ROS level compared to vehicle", "setting": "HCT-116 cells [3]; HCT-116, IC50 concentration, 1-24 h", "value": "~ 30%"}, {"measurement": "cytotoxic effect after pretreatment with NAC", "setting": "HCT-116 cells [3]; HCT-116, NAC 500 μM", "value": "NAC diminished the cytotoxic effect"}]}
